Data from patent publication US20150094327A1, “COMPOSITIONS AND METHODS FOR […]” (priority 2012, published 2015).
“Also recorded” adds a separate entry of the source. Where two headings read alike, the source gives them in different places.

Legend:
vaccinia virus WR = assay: microbe, parasite or virus in culture; type: cell-based; settings: for IC50: Orthopoxvirus vaccinia
fowlpox resolvase = assay: Holliday junction substrate cleavage by fowlpox resolvase, gel based assay; type: biochemical, fowlpox virus; settings: authentic Holliday junction substrates in vitro
[1] = Cytotoxicity, CellTiter-Glo Luminescent Cell Viability Assay; settings: for Cytotoxicity, LD50: CellTiter-Glo; for cytotoxicity: compared with compound 1
fowlpox virus resolvase = biological target: T1, fowlpox virus resolvase (Fowlpox virus, UniProt Q9J546); assay: Fluorescence polarization (FP) assay of bulged DNA substrate cleavage by fowlpox resolvase; type: biochemical; settings: for activity in the FP assay: compared with compound 1 or with the N-hydroxy parent; for IC50: off-center bulge substrate 2 nM, 10 nM fowlpox resolvase, 37° C., 1 hr
T1 sequence (Q9J546 1-156): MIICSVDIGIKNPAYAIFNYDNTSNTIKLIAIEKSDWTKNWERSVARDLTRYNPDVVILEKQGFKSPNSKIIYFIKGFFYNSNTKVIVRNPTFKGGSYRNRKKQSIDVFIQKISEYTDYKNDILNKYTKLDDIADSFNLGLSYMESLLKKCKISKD

variola topoisomerase = variola topoisomerase (Variola virus, UniProt P32989); type: biochemical
[2] = 48 h, read-out: Antiviral assay, IC50

Sequence of variola topoisomerase (P32989 whole entry, looked up): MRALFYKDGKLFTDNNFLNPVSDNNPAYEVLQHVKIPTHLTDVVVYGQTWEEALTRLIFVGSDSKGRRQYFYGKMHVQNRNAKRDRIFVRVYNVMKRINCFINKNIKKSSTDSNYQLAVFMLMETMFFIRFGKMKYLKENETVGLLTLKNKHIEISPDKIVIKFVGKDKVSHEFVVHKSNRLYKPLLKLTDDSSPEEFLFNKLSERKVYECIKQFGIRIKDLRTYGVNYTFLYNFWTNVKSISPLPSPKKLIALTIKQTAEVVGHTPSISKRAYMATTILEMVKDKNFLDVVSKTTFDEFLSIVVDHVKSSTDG

SMILES | IC50 (vaccinia virus WR; [2]) [µM] | IC50 (vaccinia virus WR; read-out: antiviral assays IC50) [µM] | inhibition of Holliday junction cleavage (fowlpox resolvase) | Cytotoxicity, LD50 [1] [µM] | activity in the FP assay (fowlpox virus resolvase) | IC50 (fowlpox virus resolvase) [µM] | Log P (Log P (hydrophobicity)) | cytotoxicity [1] | inhibition of variola topoisomerase activity (variola topoisomerase) | antiviral activity (vaccinia virus WR)
O=c1c(-c2ccccc2)c(O)c2cc(-c3cccc(-c4ccccc4)c3)cnc2n1O [Compound 1, 6-(Biphenyl-3-yl)-1,4-dihydroxy-3-phenyl-1,8-naphthyridin-2(1/H)-one] | 4 ± 1 | 4 | effective inhibition | 13 ± 4 |  |  |  |  |  | 
O=c1c(-c2ccccc2)c(O)c2cc(CCc3ccc(C(F)(F)F)cc3)cnc2n1O [Compound 2, 1,4-Dihydroxy-3-phenyl-6-(4-(trifluoromethyl)phenethyl)-1,8-naphthyridin-2(1H)-one] | 4 ± 1 |  |  | 15 ± 12 | slightly less potent | 3 ± 2 | 4.94 | no reduction in cytotoxicity |  | 
O=c1c(-c2ccccc2)c(O)c2cc(/C=C/c3ccc(C(F)(F)F)cc3)cnc2n1OCc1ccccc1 [Compound 3] | > 350 |  |  |  |  | > 250 | 6.85 |  |  | 
COc1ccc(CCc2cnc3c(c2)c(O)c(-c2ccccc2)c(=O)n3O)cc1 [Compound 4, 1,4-Dihydroxy-6-(4-methoxyphenethyl)-3-phenyl-1,8-naphthyridin-2(1H)-one] | 11 ± 1 |  |  | 10 ± 1 | slightly less potent |  |  | no reduction in cytotoxicity |  | 
CCOC(=O)c1c(O)c2cc(CCc3ccc(C(F)(F)F)cc3)cnc2n(O)c1=O [Compound 5, Ethyl 1,4-dihydroxy-2-oxo-6-(4-(trifluoromethyl)phenethyl)-1,2-dihydro-1,8-naphthyridine-3-carboxylate] | 12 ± 1 |  |  | 20 ± 12 |  | 14 ± 7 | 3.60 |  |  | 
CCOC(=O)c1c(O)c2cc(/C=C/c3ccc(C(F)(F)F)cc3)cnc2n(OCc2ccccc2)c1=O [Compound 6, (E)-Ethyl 1-(benzyloxy)-4-hydroxy-2-oxo-6-(4-(trifluoromethyl)styryl)-1,2-dihydro-1,8-naphthyridine-3-carboxylate] | > 350 |  |  |  | abolished activity | > 250 | 5.50 |  |  | 
CCOC(=O)c1c(O)c2cc(-c3cccc(OC)n3)cnc2n(O)c1=O [Compound 7, Ethyl 1,4-dihydroxy-6-(6-methoxypyridin-2yl)-2-oxo-1,2-dihydro-1,8-naphthyridine-3-carboxylate] | 25 ± 16 |  | inhibition of cleavage | 156 ± 28 | slight increase over compound 1 | 11 ± 2 | 1.43 | greatly increased | no Inhibitory activity; also recorded: lack of inhibition | slightly increased; also recorded: showed antiviral activity at concentrations below cytotoxic levels
CCOC(=O)c1c(O)c2cc(-c3cccc(OC)n3)cnc2n(OCc2ccccc2)c1=O [Compound 8, Ethyl 1-(benzyloxy)-4-hydroxy-6-(6-methoxypyridin-2-yl)-2-oxo-1,2-dihydro-1,8-naphthyridine-3-carboxylate] | > 350 |  |  |  | abolished activity | > 250 | 3.54 |  |  | 
